18 molecules from the supplement of paper PMC10949913 can be followed below.

Experiment in all cases: area under concentration-response curve (viability) (AUC (a.u.)); higher = less active
What all share (settings): 48 h

For one assay, the system named is CU-ACC1. The method in brief: (§1)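 After 48 h of treatment with 23 nL of each library compound at 11 concentrations, three adrenocortical carcinoma cell lines in 1,536-well plates (500–1,000 cells/well, 5 µL medium) were given CellTiter-Glo for 15 minutes at room temperature. Luminescence was then read and normalised per plate to vehicle and empty-well controls. AC50 and area under the curve were drawn from fitted concentration-response curves of inhibitory or non-responding classes only.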

Another assay deals with CU-ACC2. The method in brief:
as §1

In a further assay the test system is NCI-H295R. The gist of the method:
as §1

As for `Cc1c(C)c2c(c(C)c1O)CCC(C)(COc1ccc(CC3SC(=O)NC3=O)cc1)O2` (centres undefined), the “area under concentration-response curve” value stood at 369 with CU-ACC1, 511 in the assay on CU-ACC2 and 492 with NCI-H295R.

In the case of `CCN1\C=C(C(O)=O)/C(=O)C2=C1C(=C(N3CCNC(C)C3)C(=C2)F)F` (centres undefined), the “area under concentration-response curve” value in the assay on CU-ACC1 was 577; in the assay on CU-ACC2, 674; with NCI-H295R, 605.

`C=C1C(=O)OC(CCCCCCCC)C1C(=O)O` (centres undefined): the entries for the “area under concentration-response curve” value in the assay with CU-ACC1, with CU-ACC2 and in the assay on NCI-H295R were 409, 457 and 437, respectively.

Regarding `COc1cc(Nc2ncc(F)c(Nc3ccc4c(n3)NC(=O)C(C)(C)O4)n2)cc(OC)c1OC`, the figures for the “area under concentration-response curve” value in the assay on CU-ACC1, in the assay on CU-ACC2 and in the assay with NCI-H295R were 410, 612 and 563, respectively.

On to `COc1ccc(-c2cc(=O)c3c(O)cc(O)cc3o2)cc1O`, for which the “area under concentration-response curve” value came out at 452 with CU-ACC1, 447 in the assay on CU-ACC2 and 437 in the assay with NCI-H295R.

`Clc1ccccc1CN1CCc2sccc2C1`: the “area under concentration-response curve” value in the assay with CU-ACC1 is 510; in the assay on CU-ACC2, 617; in the assay on NCI-H295R, 543.

Turning to `CN(C)c1nc(N(C)C)nc(N(C)C)n1`, the “area under concentration-response curve” value with CU-ACC1 is 509; in the assay on CU-ACC2, 577; in the assay on NCI-H295R, 476.

As to `O=C(NCc1ccccc1)[C@H](Cc1ccccc1)NC(=O)[C@H]1O[C@@H]1C(=O)NCCc1ccc(O)cc1`, the “area under concentration-response curve” value in the assay with CU-ACC1 was determined as 495; in the assay with CU-ACC2, 557; in the assay on NCI-H295R, 524.

For the molecule `COc1cc2ncnc(Nc3cccc(Br)c3)c2cc1OC`, the results for the “area under concentration-response curve” value in the assay on CU-ACC1, in the assay on CU-ACC2 and in the assay on NCI-H295R were 395, 583 and 527, respectively.

Consider `O=C1c2ccccc2-c2n[nH]c3cccc1c23`, for which the “area under concentration-response curve” value with CU-ACC1 is 494; in the assay on CU-ACC2, 587; with NCI-H295R it was 530.

On to `CN1\C(=C([O-])/C2=CC=CC=C2[S+]1([O-])=O)C(=O)NC3=NC=C(C)S3`, for which the “area under concentration-response curve” value turned out to be 479 in the assay with CU-ACC1, 572 in the assay with CU-ACC2 and 525 with NCI-H295R.

For the molecule `OC1=C(Cl)C=C(N\C2=C(\C(=O)NC2=O)C3=C(C=CC=C3)[N+]([O-])=O)C=C1`, the figures for the “area under concentration-response curve” value with CU-ACC1, in the assay on CU-ACC2 and in the assay with NCI-H295R were 502, 475 and 507, respectively.

For the molecule `OCCC#Cc1nc(-c2ccc(F)cc2)c(-c2ccncc2)n1CCCc1ccccc1`, the “area under concentration-response curve” value in the assay on CU-ACC1 is 513; in the assay with CU-ACC2, 536; in the assay with NCI-H295R, 475.

In the case of `Cc1cc(N2CCOCC2)ccc1Nc1nc(NC2CCCCC2)c2nc[nH]c2n1`, the “area under concentration-response curve” value worked out at 587 in the assay on CU-ACC2 and 539 in the assay with NCI-H295R.

In the case of `C#Cc1cccc(Nc2ncnc3cc(OCCOC)c(OCCOC)cc23)c1`, the “area under concentration-response curve” value in the assay on CU-ACC2 was 623; with NCI-H295R, 550.

Turning to `NCCOc1cc(C(=O)Nc2cc(OCCN)c3ccccc3n2)nc(C(=O)Nc2cc(OCCN)c3ccccc3n2)c1`, the results for the “area under concentration-response curve” value in the assay on CU-ACC2 and with NCI-H295R were 454 and 507, respectively.

Consider `CN1C(=O)\C(=C/C2=C1N=C(NC3CCOCC3)N=C2)OC4=C(F)C=C(F)C=C4`, for which the “area under concentration-response curve” value in the assay with CU-ACC2 stood at 611; in the assay with NCI-H295R, 565.

On to `Cn1cnc(-c2cc3nccc(Oc4ccc(NC(=S)NC(=O)Cc5ccccc5)cc4F)c3s2)c1`, for which the entries for the “area under concentration-response curve” value in the assay with CU-ACC2 and in the assay on NCI-H295R were 359 and 412, respectively.
